Laboratory results reported in ChEMBL document CHEMBL4622940, “Synthesis and dopamine receptor pharmacological evaluations on ring C ortho halogenated 1-phenylbenzazepines” (Bioorg Med Chem Lett, 2020).
The source made the active and inactive calls. The calls are words filed in the database; no cut-off is given here.

Key:
D(1B) dopamine receptor = D(1B) dopamine receptor (Homo sapiens, UniProt P21918); test: Displacement of [3H]SCH23390 from dopamine D5 receptor (unknown origin)
D(2) dopamine receptor [1] = biological target: T1, D(2) dopamine receptor (Homo sapiens, UniProt P14416); test: Displacement of [3H]N-methylspiperone from dopamine D2 receptor (unknown origin) at 10 uM relative to control
T1 sequence (P14416 whole entry): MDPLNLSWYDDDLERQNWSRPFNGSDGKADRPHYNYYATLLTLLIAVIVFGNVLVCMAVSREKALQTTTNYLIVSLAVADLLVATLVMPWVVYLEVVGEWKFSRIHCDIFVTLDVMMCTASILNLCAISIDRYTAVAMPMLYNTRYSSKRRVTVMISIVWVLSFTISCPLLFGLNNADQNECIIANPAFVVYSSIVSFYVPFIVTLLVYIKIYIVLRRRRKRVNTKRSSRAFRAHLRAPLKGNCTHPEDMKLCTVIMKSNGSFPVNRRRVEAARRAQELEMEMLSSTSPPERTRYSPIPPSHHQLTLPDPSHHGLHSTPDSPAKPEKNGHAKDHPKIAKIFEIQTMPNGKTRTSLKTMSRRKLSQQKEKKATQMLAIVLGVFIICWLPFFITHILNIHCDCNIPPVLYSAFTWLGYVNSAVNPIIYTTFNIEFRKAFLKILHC

D(1A) dopamine receptor [2] = biological target: T2, D(1A) dopamine receptor (Homo sapiens, UniProt P21728); test: Displacement of [3H]SCH23390 from dopamine D1 receptor (unknown origin)
T2 sequence (P21728 whole entry): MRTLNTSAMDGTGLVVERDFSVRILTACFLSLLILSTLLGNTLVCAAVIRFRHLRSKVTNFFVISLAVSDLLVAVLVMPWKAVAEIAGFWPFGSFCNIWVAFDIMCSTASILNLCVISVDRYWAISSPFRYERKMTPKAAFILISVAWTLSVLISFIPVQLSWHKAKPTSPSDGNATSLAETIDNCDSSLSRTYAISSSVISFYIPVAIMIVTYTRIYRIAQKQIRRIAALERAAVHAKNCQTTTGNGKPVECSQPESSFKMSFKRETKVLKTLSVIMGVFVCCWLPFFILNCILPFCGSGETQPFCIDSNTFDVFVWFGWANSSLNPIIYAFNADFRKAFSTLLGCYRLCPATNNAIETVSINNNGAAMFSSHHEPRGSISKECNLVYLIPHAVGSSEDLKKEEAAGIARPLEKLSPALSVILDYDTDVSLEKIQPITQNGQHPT

Homo sapiens = species on record: Homo sapiens; test: Selectivity index, ratio of Ki for displacement of [3H]SCH23390 from dopamine D5 receptor (unknown origin) to Ki for displacement of [3H]SCH23390 from dopamine D1 receptor (unknown origin)
D(1A) dopamine receptor [3] = biological target: T2, D(1A) dopamine receptor; test: Antagonist activity at human dopamine D1 receptor expressed in CHO-K1 cells by cAMP Hunter assay; format: functional, cell-based
D(1A) dopamine receptor [4] = biological target: T2, D(1A) dopamine receptor; test: Agonist activity at human dopamine D1 receptor expressed in CHO-K1 cells by cAMP Hunter assay; format: functional, cell-based
D(2) dopamine receptor [5] = biological target: T1, D(2) dopamine receptor; test: Displacement of [3H]N-methylspiperone from dopamine D2 receptor (unknown origin)

D(1B) dopamine receptor, sequence (P21918 whole entry): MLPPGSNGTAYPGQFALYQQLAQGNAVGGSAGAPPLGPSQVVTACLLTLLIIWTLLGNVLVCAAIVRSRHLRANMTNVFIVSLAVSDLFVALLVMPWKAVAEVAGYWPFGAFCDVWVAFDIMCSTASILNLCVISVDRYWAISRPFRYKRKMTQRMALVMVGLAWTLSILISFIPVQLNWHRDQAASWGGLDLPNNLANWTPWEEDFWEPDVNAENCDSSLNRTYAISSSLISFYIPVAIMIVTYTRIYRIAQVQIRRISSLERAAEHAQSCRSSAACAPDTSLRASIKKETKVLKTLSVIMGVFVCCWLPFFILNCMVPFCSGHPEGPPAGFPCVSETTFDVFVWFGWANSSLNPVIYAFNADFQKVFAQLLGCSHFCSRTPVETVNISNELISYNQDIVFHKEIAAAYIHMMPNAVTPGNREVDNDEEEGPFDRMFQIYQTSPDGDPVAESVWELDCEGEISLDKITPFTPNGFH

SMILES | Ki (D(1B) dopamine receptor) [nM] | inhibition (D(2) dopamine receptor [1]) [%] | Ki (D(1A) dopamine receptor [2]) [nM] | Ratio Ki (Homo sapiens) | IC50 (D(1A) dopamine receptor [3]) [nM] | Activity (D(1A) dopamine receptor [4]) | Ki (D(2) dopamine receptor [5]) [nM]
COc1cc2c(cc1O)C(c1ccccc1Br)CNCC2 (stereo not drawn) | 82 | < 50 | 72 | < 3 | – | – | –
COc1cc2c(cc1O)C(c1ccccc1Cl)CNCC2 (stereo not drawn) | 483 | < 50 | 147 | < 3 | – | – | –
COc1cc2c(cc1O)C(c1c(Cl)cccc1Cl)CNCC2 (stereo not drawn) | 25.4 | < 50 | 76.1 | – | – | – | –
COc1cc2c(cc1O)C(c1c(Cl)cccc1Cl)CN(C)CC2 (stereo not drawn) | 49.1 | < 50 | 145 | – | – | – | –
COc1cc2c(cc1O)C(c1ccccc1)CNCC2 (stereo not drawn) | 310 | < 50 | 126 | < 3 | – | – | –
COc1cc2c(cc1O)C(c1ccccc1Br)CN(C)CC2 (stereo not drawn) | 47 | < 50 | 16 | 4 | – | – | –
COc1cc2c(cc1O)C(c1ccccc1Cl)CN(C)CC2 (stereo not drawn) | 46.4 | < 50 | 14 | 3 | 9.4 | inactive | –
C=CCN1CCc2cc(OC)c(O)cc2C(c2c(Cl)cccc2Cl)C1 (stereo not drawn) | 479 | – | 1040 | – | – | – | 1510
C=CCN1CCc2cc(OC)c(O)cc2C(c2ccccc2Cl)C1 (stereo not drawn) | 264 | < 50 | 48.3 | – | – | – | –
C=CCN1CCc2cc(O)c(O)cc2C(c2ccccc2Br)C1 (stereo not drawn) | 442 | < 50 | 133 | 3 to 4 | – | – | –
C=CCN1CCc2cc(OC)c(O)cc2C(c2ccccc2Br)C1 (stereo not drawn) | 501 | < 50 | 41 | – | – | – | –
Oc1cc2c(cc1O)C(c1ccccc1Br)CNCC2 (stereo not drawn) | 67 | < 50 | 26 | – | – | – | –
CN1CCc2cc(O)c(O)cc2C(c2ccccc2Br)C1 (stereo not drawn) | 223 | < 50 | 59.4 | 3 to 4 | – | – | –
